The subject of one experiment is Syrian Golden hamsters. Put plainly: In vivo serum cholesterol lowering in hamsters fed a cholesterol test diet. To be noted: hamsters; for inhibition in vivo at 100 mg/kg/day: Mesocricetus auratus, feed or water, 168 h, 0.2% (w/w) in diet for one week (100 mg/kg/day), negative values = serum cholesterol increased relative to control, read-out: Percent Lowering of Cholesterol from Control Value Mean; for Serum Cholesterol Mean: 0.2% (w/w) in Cholesterol Test Diet for one week, equivalent to 100 mg/kg/day, groups of six, control mean 337. The procedure: Syrian Golden hamsters were fed a cholesterol test diet made of 10% coconut oil and 0.12% cholesterol (by weight) in Purina 5001 Rodent Chow to induce hypercholesteriolemia.
After two weeks on the cholesterol test diet the hamsters were bled from the orbital sinium under light CO2 anesthesia. Serum was prepared and analyzed for cholesterol using a commercial test kit (Cholesterol High Performance, Single Vial™, product of Boehringer Mannheim Corp., Indianapolis, IN, USA). The hamsters were separated into groups of six animals, such that each group had approximately the same mean serum cholesterol levels. Selected compounds of the invention were incorporated into the Cholesterol Test Diet at 0.2% (w/w) and fed to the hamsters for one week. A control group of hamsters continued on the Cholesterol Test Diet during the same one-week period. The dose of test compounds of the invention was equivalent to 100 mg/kg/day based on the weight of the hamsters and their diet consumption. Upon completion of the test period, the animals were bled and serum cholesterol determined as above.
Mean serum cholesterol values from the test hamsters were compared to values from the control group and tested for significance at the Z.05 level using Dunnett's test.

Experiment [1] concerns human LDL receptor promoter. In words: in vitro Luciferase Activity Test (LDL receptor promoter-luciferase reporter in recombinant CHO cells). Type of experiment: cell-based. Also noted: MED: unit not given here. The following applies: for Emax: Homo sapiens, CHO, read-out: MA%; for Emax / MA%: maximum activity (%) over control; for MED: minimum effective dose (molar concentration, unit not given), 24 hr, assay medium with 0.5 µg/ml 25-hydroxycholesterol; for RED: relative effective dose compared to compound of Example 4, below one = more active. In a few lines: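 Stably transfected CHO clone S27/B30 carries the 1546 bp human LDL receptor promoter driving firefly luciferase; an SV40 promoter-luciferase CHO line serves as nonspecific-transcription control. Assay medium is DMEM/Ham's F-12 (3:1) with 20 mM HEPES, 0.5% bovine albumin and 0.5 µg/ml 25-hydroxycholesterol.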
(A reporter such as luciferase makes a cellular process visible.)

For another experiment, the system named is African green monkeys. Put plainly: Monkey pilot study of plasma cholesterol levels on a hypercholesterolemic diet. The experiment is classed as in vivo. To be noted: for Plasma Cholesterol Levels, individual animals: animals 1-6; for Plasma Cholesterol Levels, Mean: mean of six animals. How it is done:
To study the effect in short term lowering of plasma cholesterol concentrations in African green monkeys.
Six African green monkeys were given a hypercholesterolemic diet containing 16.4% lard and 0.33% cholesterol for two weeks to establish a baseline cholesterol level. Thereafter, two daily doses of [14a,5a]-4-(2-propenyl)cholestan-3a-ol, the compound of Example 5, were administered in their feed at 25 mg/kg/day total daily dosage. After ten days the drug dose was increased to 50 mg/kg/day for an additional 3 weeks, followed by a washout period when no drug was administered and the hypercholesterolemic diet was maintained. Blood samples were drawn on the days indicated and plasma was prepared foranalysis. Cholesterol was determined by standard enzymatic techniques(method of Allain et aI., using diagnostics high performance Cholesterol Reagent No. 236691, product of Boehringer Mannheim Co., Indianapolis, Indiana USA).

Setting [2] is: NA is not active, 30% luciferase activity cutoff point (footnote 1).
Where [3] appears, read: tests using 30% luciferase activity cutoff point (footnote 1).
Where [4] appears, read: 30% luciferase activity cutoff point (footnote 1).
[5] abbreviates: 15% luciferase activity cutoff point (footnote 2).
[6] abbreviates: tests using 15% luciferase activity cutoff point (footnote 2).

Several values for one entry are separate records, joined by “and”; a condition that tells them apart may be missing. Identical values can stand only once. Like-named read-outs stand apart in the source and are kept apart here.

Turning to `C/C=C/C[C@@H]1[C@H](O)CC[C@@]2(C)[C@H]1CC[C@@H]1[C@@H]2CC[C@]2(C)[C@@H]([C@H](C)CCCC(C)C)CC[C@@H]12` [Example 4, [4a(E),5a]-4-(2-butenyl)cholestan-3a-ol], in the experiment on Syrian Golden hamsters, the inhibition in vivo at 100 mg/kg/day was 37.8% and the “Serum Cholesterol Mean” value was 210 mg/dL. The Emax in experiment [1] (setting [2]) is 80%. Also, the MED in experiment [1] (setting [3]) amounted to 2.2. Further, the RED in experiment [1] (setting [4]) is recorded as 1.00.

With `C=CC[C@@H]1[C@H](O)CC[C@@]2(C)[C@H]1CC[C@@H]1[C@@H]2CC[C@]2(C)[C@@H]([C@H](C)CCCC(C)C)CC[C@@H]12` [Example 5, [4a,5a]-4-(2-propenyl)cholestan-3a-ol], the inhibition in vivo at 100 mg/kg/day in the experiment on Syrian Golden hamsters was 49.2%. Besides, in the experiment with Syrian Golden hamsters (listed as (2)), the “Serum Cholesterol Mean” value came out at 171 mg/dL. The “Plasma Cholesterol Levels, individual animals” value was 184 and 878 and 155 and 159 and 148 and 211 in the experiment with African green monkeys (Day 4, dose 50 mg/kg/day in feed, 50 mg/kg/day); 268 and 411 and 175 and 182 and 189 and 252 with African green monkeys (Day 5, dose 25 mg/kg/day in feed, 25 mg/kg/day); 209 and 251 and 165 and 192 and 174 and 200 in the experiment with African green monkeys (Day 7 Washout (no drug, diet maintained)); 208 and 386 and 172 and 184 and 174 and 249 in the experiment on African green monkeys (Day 8, dose 25 mg/kg/day in feed, 25 mg/kg/day); 172 and 276 and 159 and 169 and 157 and 206 with African green monkeys (Day 12 (dose not given; 50 mg/kg/day per method), 50 mg/kg/day); 226 and 311 and 176 and 159 and 173 and 213 in the experiment on African green monkeys (Day 14 Washout (no drug, diet maintained)). Also, the “Plasma Cholesterol Levels, individual animals” value in the experiment with African green monkeys (Day 20 (dose not given; 50 mg/kg/day per method), 50 mg/kg/day) is 188 and 314 and 143 and 161 and 142 and 206; in the experiment with African green monkeys (Day 21 Washout (no drug, diet maintained)) it was 270 and 344 and 193 and 168 and 216 and 246. For the same molecule, the “Plasma Cholesterol Levels, Mean” value in the experiment on African green monkeys (Day 4, dose 50 mg/kg/day) was determined as 205; in the experiment on African green monkeys (Day 5, dose 25 mg/kg/day, Day 0 mean 252), 244; in the experiment with African green monkeys (Day 7 Washout), 199; with African green monkeys (Day 8, dose 25 mg/kg/day), 226; in the experiment with African green monkeys (Day 12 (50 mg/kg/day per method)) it was 190; in the experiment with African green monkeys (Day 14 Washout) it was 210. Besides, the entries for the “Plasma Cholesterol Levels, Mean” value with African green monkeys (Day 20 (50 mg/kg/day per method)) and in the experiment with African green monkeys (Day 21 Washout) were 192 and 240, respectively. For the same molecule, the “lowering plasma cholesterol levels” value in the experiment with African green monkeys (conclusion of the pilot study, 25 then 50 mg/kg/day in feed) is given as “effective in lowering plasma cholesterol levels”. The Emax in experiment [1] (setting [5]) was found to be 121%. Also, the MA% in experiment [1] (setting [5]) is 120% and 135%.

`CC(C)CCC[C@@H](C)[C@H]1CC[C@H]2[C@@H]3CCC4[C@H](Cc5ccc(F)cc5)[C@H](O)CC[C@]4(C)[C@H]3CC[C@]12C` (stereo partly drawn) [Example 23, 4a-(4-fluorobenzyl)cholestan-3a-ol]: in the experiment on Syrian Golden hamsters, the inhibition in vivo at 100 mg/kg/day was determined as 46.3% and the “Serum Cholesterol Mean” value was 181 mg/dL. In experiment [1] (setting [5]), the Emax was determined as 49% and the MA% stood at 37%.

For the molecule `CC(C)CCC[C@@H](C)[C@H]1CC[C@H]2[C@@H]3CCC4[C@H](Cc5ccc(I)cc5)[C@H](O)CC[C@]4(C)[C@H]3CC[C@]12C` (stereo partly drawn) [Example 25, 4a-(4-iodobenzyl)cholestan-3a-ol], in the experiment with Syrian Golden hamsters, the inhibition in vivo at 100 mg/kg/day is 28.8% and the “Serum Cholesterol Mean” value came out at 240 mg/dL. In addition, the MA% in experiment [1] (setting [5]) was 89% and 64% and 79%.

Consider `CC(C)CCC[C@@H](C)[C@H]1CC[C@H]2[C@@H]3CCC4[C@H](Cc5ccc(OC(F)(F)F)cc5)[C@H](O)CC[C@]4(C)[C@H]3CC[C@]12C` (stereo partly drawn) [Example 30, 4a-(4-trifluoromethoxybenzyl)cholestan-3a-ol], for which, in the experiment with Syrian Golden hamsters, the inhibition in vivo at 100 mg/kg/day was found to be 38% and the “Serum Cholesterol Mean” value was determined as 209 mg/dL. Besides, in experiment [1] (setting [5]), the Emax came to 76% and the RED was found to be 3.2. For the same molecule, in experiment [1] (setting [2]), the MA% was 65% and 92%. The MED in experiment [1] (setting [6]) turned out to be 8.9. Further, in experiment [1] (setting [3]), the MED was 17.3 and 8.9.

Regarding `CC(C)CCC[C@@H](C)[C@H]1CC[C@H]2[C@@H]3CCC4[C@H](Cc5ccc(O)cc5)[C@H](O)CC[C@]4(C)[C@H]3CC[C@]12C` (stereo partly drawn) [Example 36, 4a-(4-hydroxybenzyl)cholestan-3a-ol], in the experiment on Syrian Golden hamsters, the inhibition in vivo at 100 mg/kg/day turned out to be 22.6% and the “Serum Cholesterol Mean” value is given as 261 mg/dL. In addition, in experiment [1] (setting [5]), the Emax is 20% and the RED turned out to be 17.6. Further, in experiment [1] (setting [6]), the MED is given as 40.

Consider `C=CC[C@H]1C2CC[C@@H]3[C@H](CC[C@]4(C)C(OCCCC(C)C)CC[C@@H]34)[C@@]2(C)CC[C@H]1O` (stereo partly drawn) [Example 66, (3α,4α)-17-[(4-methylpentyl)oxy]-4-(2-propenyl)androstan-3-ol], for which, in the experiment on Syrian Golden hamsters, the inhibition in vivo at 100 mg/kg/day worked out at 30.7% and the “Serum Cholesterol Mean” value was 234 mg/dL. Further, in experiment [1] (setting [2]), the MA% was 73% and 100% and 105% and 118%.

For `C=CC[C@H]1C2CC[C@@H]3[C@H](CC[C@]4(C)C(OCc5ccccc5)CC[C@@H]34)[C@@]2(C)CC[C@H]1O` (stereo partly drawn) [Example 68, (3α,4α)-17-(phenylmethoxy)-4-(2-propenyl)androstan-3-ol], in the experiment on Syrian Golden hamsters, the inhibition in vivo at 100 mg/kg/day was found to be 8.6% and the “Serum Cholesterol Mean” value is reported as 309 mg/dL. Moreover, in experiment [1] (setting [2]), the Emax was 42%; the MA% is 33% and 39%.

On to `C=CC[C@@H]1C[C@@]2(C)[C@@H](CC[C@@H]3[C@@H]2CC[C@]2(C)[C@@H]([C@H](C)CCCC(C)C)CC[C@@H]32)C[C@@H]1O` [Example 77, (2a, 3a, 5a)-2-(2-propenyl)cholestan-3-ol], for which, in the experiment on Syrian Golden hamsters, the inhibition in vivo at 100 mg/kg/day turned out to be 38% and the “Serum Cholesterol Mean” value is 209 mg/dL. In experiment [1] (setting [2]), the Emax was 60%. Also, the MED in experiment [1] (setting [3]) is 40.8. Further, the RED in experiment [1] (setting [4]) worked out at 4.6.

Regarding `C=CC[C@@H]1[C@H](NC(C)=O)CC[C@@]2(C)[C@H]1CC[C@@H]1[C@@H]2CC[C@]2(C)[C@@H]([C@H](C)CCCC(C)C)CC[C@@H]12` [Example 81, N-[(3α,4α,5α,20β)-4-(2-propenyl)cholestan-3-61]acetamide], in the experiment with Syrian Golden hamsters, the inhibition in vivo at 100 mg/kg/day is -7.8% and the “Serum Cholesterol Mean” value is given as 364 mg/dL. Further, in experiment [1] (setting [2]), the Emax is 32%. Further, in experiment [1] (setting [3]), the MED is reported as 44.9. Moreover, the RED in experiment [1] (setting [4]) stood at 7.9.

Turning to `C=CC[C@@H]1[C@H](N)CC[C@@]2(C)[C@H]1CC[C@@H]1[C@@H]2CC[C@]2(C)[C@@H]([C@H](C)CCCC(C)C)CC[C@@H]12` [Example 86], in the experiment on Syrian Golden hamsters, the inhibition in vivo at 100 mg/kg/day is -37.4% and the “Serum Cholesterol Mean” value stood at 464 mg/dL. For the same molecule, in experiment [1] (setting [2]), the Emax turned out to be 89%. Further, in experiment [1] (setting [3]), the MED is recorded as 5.6. For the same molecule, the RED in experiment [1] (setting [4]) was 2.0.

As for `CCC[C@@H]1[C@H](O)CC[C@@]2(C)[C@H]1CC[C@@H]1[C@@H]2CC[C@]2(C)[C@@H]([C@H](C)CCCC(C)C)CC[C@@H]12` [Example 87], in the experiment with Syrian Golden hamsters, the inhibition in vivo at 100 mg/kg/day is 31.2% and the “Serum Cholesterol Mean” value stood at 222 mg/dL. Besides, the Emax in experiment [1] (setting [2]) is 14%. The MED in experiment [1] (setting [3]) was found to be 23.2. For the same molecule, in experiment [1] (setting [4]), the RED is recorded as 8.3.

Values taken from EP0562849A2, “Steroid derivatives” (priority 1992, dated 1993).
